Measured values from US20090093454A1, “Chemical Compounds” (priority 2005, published 2009).
pIC50: −log10 of the molar value.

System: HIV-1
Assay: HIV infectivity assay (Table 2, strain not given)
Format: cell-based
Details: Human immunodeficiency virus 1, read-out: Activity Level
Summary of the method: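 HOS cells expressing hCXCR4/hCCR5/hCD4 with HIV-LTR-luciferase, pre-treated 1 h with compound at 37 °C, then infected with HIV-1 Ba-L or IIIB (~2 million RLU/well) for 96 h. Infection read by Steady-Glo luciferase; cytotoxicity in uninfected cultures by CellTiter-Glo.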

| Structure (SMILES) | pIC50 |
| --- | --- |
| CN(C)[C@@H]1CCN(c2cccc3nc(CN4CCC[C@H]5CCc6cccnc6[C@H]54)cn23)C1 [Example 105, (3R)-1-{2-[(4aR,10bS)-3,4,4a,5,6,10b-hexahydro-1,10-phenanthrolin-1(2H)-ylmethyl]imidazo[1,2-a]pyridin-5-yl}-N,N-dimethyl-3-pyrrolidinamine] | > 7.00 |
| NCC1CCN(c2cccc3nc(CN4CCC[C@H]5CCc6cccnc6[C@H]54)cn23)CC1 [Example 85, [(1-{2-[(4aR,10bS)-3,4,4a,5,6,10b-hexahydro-1,10-phenanthrolin-1(2H)-ylmethyl]imidazo[1,2-a]pyridin-5-yl}-4-piperidinyl)methyl]amine] | > 7.00 |
| CNC1CCN(c2cccc3nc(CN4CCC[C@H]5CCc6cccnc6[C@H]54)cn23)C1 (stereo partly drawn) [Example 95, 1-{2-[(4aR,10bS)-3,4,4a,5,6,10b-hexahydro-1,10-phenanthrolin-1(2H)-ylmethyl]imidazo[1,2-a]pyridin-5-yl}-N-methyl-3-pyrrolidinamine] | > 7.00 |
| C[C@@H]1CN[C@@H](C)CN1c1cccc2nc(CN3CCC[C@H]4CCc5cccnc5[C@H]43)cn12 [Example 79, (4aR,10bS)-1-({5-[(2R,5S)-2,5-dimethyl-1-piperazinyl]imidazo[1,2-a]pyridin-2-yl}methyl)-1,2,3,4,4a,5,6,10b-octahydro-1,10-phenanthroline] | > 7.00 |
| c1cnc2c(c1)CC[C@@H]1CCCN(Cc3cn4c(NC[C@@H]5CCCNC5)cccc4n3)[C@H]21 [Example 113, 2-[(4aR,10bS)-3,4,4a,5,6,10b-hexahydro-1,10-phenanthrolin-1(2H)-ylmethyl]-N-[(3R)-3-piperidinylmethyl]imidazo[1,2-a]pyridin-5-amine] | > 7.00 |
| c1ccc(Cn2ccnc2Cn2c(CN3CCC[C@@H]4CCc5cccnc5[C@H]43)nc3ccccc32)cc1 (relative stereo) [Example 46, (trans) 1-[(1-{[1-(phenylmethyl)-1H-imidazol-2-yl]methyl}-1H-benzimidazol-2-yl)methyl]-1,2,3,4,4a,5,6,10b-octahydro-1,10-phenanthroline] | 5.00 to 6.30 |
| c1cnc2c(c1)CC[C@@H]1CCCN(Cc3cn4c(N5CCC(N6CCCC6)CC5)cccc4n3)[C@H]21 [Example 72, (4aR,10bS)-1-({5-[4-(1-pyrrolidinyl)-1-piperidinyl]imidazo[1,2-a]pyridin-2-yl}methyl)-1,2,3,4,4a,5,6,10b-octahydro-1,10-phenanthroline] | > 7.00 |
| CN1CCCC1CCNc1cccc2nc(CN3CCC[C@H]4CCc5cccnc5[C@H]43)cn12 (stereo partly drawn) [Example 104, 2-[(4aR,10bS)-3,4,4a,5,6,10b-hexahydro-1,10-phenanthrolin-1(2H)-ylmethyl]-N-[2-(1-methyl-2-pyrrolidinyl)ethyl]imidazo[1,2-a]pyridin-5-amine] | > 7.00 |

System: T-tropic HIV
Assay: not given
Details: patients that are dual tropic or with only the T-tropic form of the virus; cited from earlier work

| Structure (SMILES) | T-tropic HIV viral load |
| --- | --- |
| c1cc(CN2CCCNCCNCCCNCC2)ccc1CN1CCCNCCNCCCNCC1 [AMD-3100] | significantly reduce |
